The results in this text go back to ChEMBL document CHEMBL1126009, “Synthesis and biological activities of fatty acid conjugates of a cyclic lactam alpha-melanotropin” (1992).

In assay [1] the test system is S91. Kind of assay: […] potency was measured as the minimal effective dose required to elicit the response relative to alpha-MSH(1.0) by using melanoma tyrosinase bioassay; response is prolonged (+).range=10-100. The format is functional, Mus musculus.
Assay [2] has as its system lizard. Kind of assay: […] activity in lizard skin (10e-9 M) bioassay, compared to the half-maximal effective dose of alpha-MSH (1.0); response is prolonged (+). It is filed as functional.
Assay [3] has as its system lizard. Kind of assay: […] activity in lizard skin (10e-9 M) bioassay, compared to the half-maximal effective dose of alpha-MSH (1.0); response is not prolonged (-). It is filed as functional.
The test system of assay [4] is S91. Description: […] potency was measured as the minimal effective dose required to elicit the response relative to alpha-MSH(1.0) by using melanoma tyrosinase bioassay; response is somewhat prolonged (+/-). The format is functional, Mus musculus.
The test system of assay [5] is S91. Kind of assay: […] potency was measured as the minimal effective dose required to elicit the response relative to alpha-MSH(1.0) by using melanoma tyrosinase bioassay; response is prolonged (+).range =10-100. It is filed as functional, Mus musculus.

As for `CCCCCCCCCCCCCCCC(=O)N[C@H]1CC(=O)NCCCC[C@@H](C(N)=O)NC(=O)[C@H](Cc2c[nH]c3ccccc23)NC(=O)[C@H](CCCN=C(N)N)NC(=O)[C@@H](Cc2ccccc2)NC(=O)[C@H](Cc2c[nH]cn2)NC1=O`, in the assay on S91 [1], the Melanotropic potency was 100.
As to `CCCCCCCCCCCCCCCC(=O)NC1CC(=O)NCCCC[C@@H](C(N)=O)NC(=O)[C@H](Cc2c[nH]c3ccccc23)NC(=O)[C@@H](CCCN=C(N)N)NC(=O)[C@H](Cc2ccccc2)NC(=O)[C@@H](Cc2c[nH]cn2)NC1=O` (some centres not stated), the Melanotropic activity in the assay with lizard [2] stood at 0.01.
On the same count and under the same terms, the value for `CCCCCCCCCC(=O)NC1CC(=O)NCCCC[C@@H](C(N)=O)NC(=O)[C@H](Cc2c[nH]c3ccccc23)NC(=O)[C@@H](CCCN=C(N)N)NC(=O)[C@H](Cc2ccccc2)NC(=O)[C@@H](Cc2c[nH]cn2)NC1=O` (some centres not stated) was 1.
`CCCCCCCCCC(=O)N[C@H]1CC(=O)NCCCC[C@@H](C(N)=O)NC(=O)[C@H](Cc2c[nH]c3ccccc23)NC(=O)[C@H](CCCN=C(N)N)NC(=O)[C@@H](Cc2ccccc2)NC(=O)[C@H](Cc2c[nH]cn2)NC1=O` had a Melanotropic potency in the assay with S91 [1] of 100.
`CCCCCCCCCCCCCC(=O)NC1CC(=O)NCCCC[C@@H](C(N)=O)NC(=O)[C@H](Cc2c[nH]c3ccccc23)NC(=O)[C@@H](CCCN=C(N)N)NC(=O)[C@H](Cc2ccccc2)NC(=O)[C@@H](Cc2c[nH]cn2)NC1=O` (some centres not stated) showed a Melanotropic activity with lizard [2] of 0.01.
`CC(=O)N[C@H]1CC(=O)NCCCC[C@@H](C(N)=O)NC(=O)[C@H](Cc2c[nH]c3ccccc23)NC(=O)[C@@H](CCCN=C(N)N)NC(=O)[C@@H](Cc2ccccc2)NC(=O)[C@@H](Cc2c[nH]cn2)NC1=O` returned a Melanotropic activity in the assay on lizard [3] of 1.
In the assay on S91 [1], `CCCCCC(=O)N[C@H]1CC(=O)NCCCC[C@@H](C(N)=O)NC(=O)[C@H](Cc2c[nH]c3ccccc23)NC(=O)[C@H](CCCN=C(N)N)NC(=O)[C@@H](Cc2ccccc2)NC(=O)[C@H](Cc2c[nH]cn2)NC1=O` registered a Melanotropic potency of 100.
Regarding `NC(=O)[C@@H]1CCCCNC(=O)C[C@H](N)C(=O)N[C@@H](Cc2c[nH]cn2)C(=O)N[C@H](Cc2ccccc2)C(=O)N[C@@H](CCCN=C(N)N)C(=O)N[C@@H](Cc2c[nH]c3ccccc23)C(=O)N1`, the Melanotropic potency in the assay on S91 [4] was determined as 1.
Consider `NC(=O)[C@@H]1CCCCNC(=O)C[C@H](N)C(=O)N[C@H](Cc2c[nH]cn2)C(=O)N[C@H](Cc2ccccc2)C(=O)N[C@H](CCCN=C(N)N)C(=O)N[C@@H](Cc2c[nH]c3ccccc23)C(=O)N1`, for which the Melanotropic activity in the assay on lizard [3] came to 0.2.
For `CCCCCC(=O)N[C@H]1CC(=O)NCCCC[C@@H](C(N)=O)NC(=O)[C@H](Cc2c[nH]c3ccccc23)NC(=O)[C@@H](CCCN=C(N)N)NC(=O)[C@H](Cc2ccccc2)NC(=O)[C@@H](Cc2c[nH]cn2)NC1=O`, the Melanotropic activity with lizard [2] came to 1.
The molecule `CC(=O)N[C@H]1CC(=O)NCCCC[C@@H](C(N)=O)NC(=O)[C@H](Cc2c[nH]c3ccccc23)NC(=O)[C@H](CCCN=C(N)N)NC(=O)[C@@H](Cc2ccccc2)NC(=O)[C@H](Cc2c[nH]cn2)NC1=O` gave a Melanotropic potency in the assay with S91 [4] of 1.
`CCCCCCCCCCCCCC(=O)N[C@H]1CC(=O)NCCCC[C@@H](C(N)=O)NC(=O)[C@H](Cc2c[nH]c3ccccc23)NC(=O)[C@H](CCCN=C(N)N)NC(=O)[C@@H](Cc2ccccc2)NC(=O)[C@H](Cc2c[nH]cn2)NC1=O` registered a Melanotropic potency with S91 [5] of 100.
